{"source": "patent US7652037B2", "about": "“Methods of lowering lipid levels in a mammal” (City Of Hope, priority 2003, dated 2010)", "key": {"[1]": {"test_system": "rats with diabetic nephropathy", "conditions": "rats with diabetic nephropathy (Forbes et al.); cited from earlier work"}, "Human LDL [2]": {"test_system": "Human LDL", "assay": "Cu++-mediated oxidation of LDL, TBARS (Example 9)", "conditions": "5 μM CuCl2, 10-250 μM compound, 5 hours, 37° C.", "description": "The ability of the LR compounds to inhibit lipid peroxidation was tested using Cu^++-mediated lipid oxidation, a common in vitro model for studies on lipoxidative modifications of proteins. The effects of the LR compounds on lipid peroxidation were studied using Cu^++-mediated oxidation of LDL. Human LDL (50 μg of protein/mL) was incubated at 37° C. in chelex-treated PBS buffer alone or in the presence of 5 μM CuCl2 or 5 μM CuCl2 plus various concentrations of the inhibitor compounds (10-250 μM). After 5 hours of incubation, the amount of thiobarbituric acid reactive substances (expressed as malondialdehyde (MDA) equivalents) generated in the reaction mixture was calculated according to methods described by Dillon et al., Life Sci. #72:1583-1594, 2003. Briefly, aliquots from each sample were precipitated with 20% trichloroacetic acid, centrifuged and an equal volume of 1% thiobarbituric acid was added to the supernatant. The samples then were heated to 95° C. for 10 minutes, and upon cooling, the absorbance was read at 532 nm. Hydrolyzed tetraethoxypropane was used as a standard for the MDA equivalent calculation."}, "Human LDL [3]": {"test_system": "Human LDL", "assay": "Cu++-mediated LDL oxidation, TBARS (Example 16)", "conditions": "250 μM compound, followed for 5 hours; control lag phase about 2 hours", "description": "Human LDL was isolated from plasma of healthy donors by single vertical spin centrifugation (see Chung et al., Methods Enzymol. 128:181-209, 1986) and used within 24-48 hours of preparation. LDL (50 μg/mL) was incubated at 37° C. in 50 mM chelex-treated phosphate buffer, pH 7.4, alone or in the presence of 5 μM CuCl2 or 5 μM CuCl2 plus various concentrations of the LR compounds. After 5 hours of incubation, aliquots from each reaction mixture were removed for measurement of thiobarbituric acid-reacting substances (TBARS) as described in Satoh, Clin. Chim. Acta 90:37-43, 1978. Briefly, 250 μL of 20% trichloroacetic acid was added to 500 μL of sample aliquot, followed by 750 μL of 1% […]. The samples then were vortexed and incubated in a boiling water bath for 10 minutes. Upon cooling, the samples were centrifuged for 5 minutes at 5000 rpm. Absorbance of the supernatant was taken at 532 nm, and expressed as MDA equivalents using 1,1,3,3-tetramethoxypropane as standards. For fatty acid oxidation studies, linoleic acid (5#mM) was incubated alone or in the presence of 1 mM LR compound in […] phosphate buffer, pH 7.4, for 7 days at 37° C. Aliquots from each reaction mixture were withdrawn periodically for measurement of TBARS as described above.\nResults are shown in FIG. 23A, where values are provided as means±SD of two independent experiments (n=4 for each treatment). In separate experiments, the time course for the oxidative modification fo LDL by Cu^++ in the presence of 250 μM compound was followed for 5 hours and aliquots for each time interval were assayed for TBARS. Values in FIG. 23B are means±SD of two independent experiments (n=4 per treatment)."}, "[4]": {"test_system": "diabetic and hyperlipidemic rats", "conditions": "diabetic and hyperlipidemic rats (Degenhardt et al.; Alderson et al.); cited from earlier work"}, "[5]": {"assay": "Inhibition of copper-catalyzed oxidation of ascorbic acid (Cu2+ chelating activity)", "conditions": "500 nmol/L CuCl2, 500 μmol/L ascorbic acid, phosphate buffer pH 7.4, 60 minutes; read-out: IC50, concentration that inhibited the rate of AA oxidation by 50%", "description": "In vitro measurement of the kinetics of inhibition of copper-catalyzed oxidation of ascorbic acid was performed according to the methods of Price et al., J. Biol. Chem. 276:48967-48972, 2001. Briefly, CuCl2 and various concentrations of inhibitor compounds were pre-incubated in chelex-treated 20 mmol/L phosphate buffer, pH 7.4, for 5 minutes. Ascorbic acid then was added (50 μL of 10 mmol/L in water) to initiate the reaction (1 mL total reaction volume). The final concentrations of CuCl2 and ascorbic acid in the reaction were 500 nmol/L and 500 μmol/L, respectively. Aliquots (135 μL) were removed at 0 and 60 minutes and transferred to autoinjector vials containing 15 μL of 10 mmol/l DTPA. Samples were analyzed by reversed phase HPLC on an XTerra™ RP18 column (250 mm×4.6 mm, 5 μm) with an XTerra™ RP18 5 μm guard column using a Waters® 2690 Separator Module equipped with auto-injector and Millenium® 32 software. Solvents and gradient were all used as described in Dillon et al., Life Sci. 72:1583-1594, 2003. The absorbance of ascorbic acid was measured at 244 nm and the peak area was obtained to estimate the percent of ascorbic acid remaining versus time. For each inhibitor compound, the concentration that inhibited the rate of AA oxidation by 50% (IC50), was calculated with respect to the control using Prism™ software."}, "[6]": {"assay": "Superoxide production, methylglyoxal with N-α-acetyl-lysine, WST-1 assay", "description": "The superoxide radical scavenging activity of the compounds was evaluated using the WST-1 method described in Ukeda et al., Anal. Sci. 18:1151-1154, 2002. Briefly, methylglyoxal, was incubated with or without N-α-acetyl-lysine in 0.05 M chelex-treated sodium phosphate buffer, pH 7.4, in the presence of various concentrations of the inhibitor compounds. The production of superoxide was monitored spectrophotometrically at 438 nm, and compared with superoxide dismutase and Tiron, two known superoxide radical scavengers."}}}
{"smiles": "CCOC(=O)[C@H](CCc1ccccc1)N[C@@H](C)C(=O)N1[C@H](C(=O)O)C[C@@H]2CCC[C@@H]21", "note": "[ramipril]", "values": [{"measurement": "increase in CML-AGE and nitrotyrosine staining", "setting": "[1]", "result": "attenuated"}]}
{"smiles": "Cc1ncc(CO)c(CN)c1O", "note": "[PM, pyridoxamine, reference compound]", "values": [{"measurement": "inhibition of Cu++-mediated LDL oxidation (lipid peroxidation)", "setting": "Human LDL [2]", "result": "no effect"}, {"measurement": "inhibition of Cu++-mediated LDL oxidation (lipid peroxidation)", "setting": "Human LDL [2]; listed as pyridoxamine", "result": "minimal effects"}, {"measurement": "time course of Cu++-mediated oxidation of LDL", "setting": "Human LDL [3]", "result": "no effect"}, {"measurement": "lipid-lowering effects", "setting": "[4]", "result": "lipid-lowering effects"}]}
{"smiles": "N=C(N)NN", "note": "[AG, aminoguanidine, reference compound]", "values": [{"measurement": "IC50", "setting": "[5]", "result": 2.75, "unit": "mM"}, {"measurement": "effect on superoxide production", "setting": "[6]", "result": "little or no effect"}, {"measurement": "lipid-lowering effects", "setting": "[4]", "result": "lipid-lowering effects"}, {"measurement": "increase in CML-AGE and nitrotyrosine staining", "setting": "[1]", "result": "attenuated"}]}
